Measured values from patent US20100015128A1, “GRP78 as a Predictor of Responsiveness to Therapeutic Agents” (UNIVERSITY OF SOUTHERN CALIFORNIA, priority 2006, published 2010).
Each block holds one molecule with its values, some of them ahead of it. d = 2'-deoxy (DNA); r = 2'-OH (RNA)

Tests used:
[1] = target: Flag-tagged BIK-b5TM (UniProt Q13323); assay: cell-based or functional assay
[2] = test system: GRP78; assay: siRNA knockdown in MCF-7/BUS cells, Western blot for Grp78; type: cell-based, human; conditions: transient transfection, vs control siRNA
Source text: (§1) Western blots and quantitation. The Western blots were done as described (Lee, Methods 35:373-81 (2005)). The primary antibodies were goat anti-BIK (N-19, Santa Cruz Biotechnology, Santa Cruz, Calif.), rat anti-Grp78 (76-E6, Santa Cruz Biotechnology), rat anti-GRP94, rabbit anti-calnexin, rabbit anti-calreticulin (Stressgen, Ann Arbor, Mich.), mouse anti-Flag M2, mouse anti-poly(ADP-ribose) polymerase (PARP; F-2, Santa Cruz Biotechnology, Santa Cruz, Calif.), and mouse anti-h-actin (Sigma-Aldrich, St. Louis, Mo.). Anti-h-actin was diluted at 1:2,000; anti-BIK at 1:500; and other antibodies at 1:1,000. Respective horseradish peroxidase-conjugated secondary antibodies (Santa Cruz Biotechnology, Santa Cruz, Calif.) at 1:1,000 dilution were used. The Western blots were quantitated by Fluor-S® MultiImager (Bio-Rad, Hercules, Calif.) according to the manufacturer's instructions. All quantitations were normalized against h-actin.
(§2) Small interfering RNA. The siRNA against Grp78 is 5′-gagcgcauugauacuagadTdT-3′ (SEQ ID NO:1) as described (Tsutsumi et al., Oncogene 25:1018-29 (2006)). The siRNA against Bik is 5′-[…]-3′ (SEQ ID NO:2) (Hur et al., PNAS 101:2351-6 (2004)). The control siRNA is Silencer Negative Control #3 siRNA (Ambion, Foster City, Calif.) composed of a 19-bp scrambled sequence without significant homology to any known gene sequences from mouse, rat, or human. […]

[3] = test system: GRP94; assay: siRNA knockdown in MCF-7/BUS cells, Western blot for GRP94; type: cell-based, human; conditions: transient transfection
Source text: as §1, §2

[4] = test system: MCF-7/BUS cells; assay: Mitochondrial membrane potential staining (apoptosis); type: cell-based, human
Source text: (§3) Cell lines and culture conditions. The estrogen-dependent cell line MCF-7/BUS was provided by A. M. Soto (Tufts University, Medford, Mass.) and has been described (Soto et al., Environ. Health Perspect. 103:113-22 (1995)). The human embryonic kidney 293T cells and MCF-7/BUS cells were maintained in DMEM supplemented with 10% fetal bovine serum. Estrogen starvation of MCF-7/BUS cells was done as described (Hur et al., PNAS 101:2351-6 (2004)). Briefly, the cells were washed thrice with phenol red-free DMEM and incubated in washing medium at 37° C. for 60 minutes. The MCF-7/BUS cells were then cultured in phenol red-free DMEM supplemented with 5% charcoal/dextran-stripped fetal bovine serum for 24 to 72 hours as indicated. For etoposide treatment, the cells were incubated with 50 μmol/L etoposide for 6 hours and cultured for another 24 hours before harvest.
For construction of the adenovirus expression vectors, either GFP or a His-tagged full-length hamster Grp78 cDNA was subcloned into an adenoviral vector and its expression was driven by the cytomegalovirus promoter. […] For mitochondrial membrane potential staining, because GFP interferes with the green fluorescence of this assay, the adenovirus empty vector was used as the negative control. […]
Cell death and apoptotic assays. […] The cell cultures were then washed with PBS and examined under a fluorescence microscope. […]

[5] = test system: PARP; assay: PARP cleavage by Western blot in estrogen-starved cells; type: cell-based, human; conditions: MCF-7/BUS cells, estrogen starvation; for PARP cleavage: vs control siRNA
Procedure: In FIG. 8A, cell lysates from MCF-7/BUS cells transfected with siGrp78 oligomers or control siRNA (siCtrl) for 24 hours and subsequently cultured in regular or estrogen-free medium (ES) for 24 hours were subjected to SDS-PAGE and Western blotting to probe for levels of GRP78, GRP94 and β-actin. In FIG. 8B, MCF-7/BUS cells were cultured either in regular or in estrogen-free (ES) medium for 24 hours after transfection of siGrp78 or siCtrl as indicated. The percent of apoptotic cells was assessed by mitochondrial membrane potential staining. The standard errors are indicated. In FIG. 8C, MCF-7/BUS cells were transfected with control siRNA, siGrp78, or siBik, alone or in combination as indicated for 24 hours and then cultured in ES medium for 24 hours. The total amount of siRNA in each condition was adjusted to be the same by addition of siCtrl. Cell lysates were collected and subjected to SDS-PAGE and probed for levels of GRP78, BIK and β-actin by Western blotting. In FIG. 8D, cell lysates from FIG. 8C were subjected to SDS-PAGE and Western blotted with anti-PARP antibody. The Western signal of full-length PARP and apoptosis-signature fragment were quantitated by Fluor-S™ MultiImager (Bio-Rad, Hercules, Calif.). The relative PARP cleavages are shown with the PARP cleavage in cells transfected with control siRNA set as 1. Columns in FIGS. 8B and 8D represent the mean from three or two experiments, respectively. Standard error: * p<0.05, ** p<0.01.
Cell lines and culture conditions. The estrogen-dependent cell line MCF-7/BUS was provided by A. M. Soto (Tufts University, Medford, Mass.) and has been described (Soto et al., Environ. Health Perspect. 103:113-22 (1995)). The human embryonic kidney 293T cells and MCF-7/BUS cells were maintained in DMEM supplemented with 10% fetal bovine serum. […]
Western blots and quantitation. […] The Western blots were quantitated by Fluor-S® MultiImager (Bio-Rad, Hercules, Calif.) according to the manufacturer's instructions. All quantitations were normalized against h-actin.

[6] = test system: BIK; assay: BIK protein induction under stress conditions (Western blot); type: cell-based, human
Source text: as §3, §1

[7] = target: endogenous BIK (human) (UniProt Q13323); assay: cell-based or functional assay
[8] = test system: BIK; assay: siRNA knockdown in MCF-7/BUS cells, Western blot for BIK; type: cell-based, human; conditions: estrogen starvation, vs control siRNA
Source text: as §1, §2

[9] = target: T1, GST protein (UniProt P08515 1-218 = GST); assay: GST pull-down from 293T total cell extract, Western blot
T1 construct: Negative control in the pull-down assays; also called Glutathione S-transferase
Procedure: (§4) FIGS. 5A to 5D show selective association of endogenous BIK with GRP78. In FIG. 5A, 293T cells were either non-treated or treated with 50 μM etoposide (Etop) for 6 hours and were harvested 24 hours later. MCF-7/BUS cells were cultured either in regular DMEM or in estrogen-free DMEM for 48 hours. Western blots of total protein lysates from these cells were performed with antibodies against BIK and β-actin. In FIG. 5B, cell lysates prepared from control and Etop-treated 293T cells were immunoprecipitated with anti-BIK or normal IgG The immunoprecipitates were applied in parallel with input lysates to SDS-PAGE and Western blotted with antibodies against GRP78, GRP94, calnexin, calreticulin and BIK. […] In FIG. 5D, lysates of 293T cells were incubated with GST-GRP78, GST-BIK, or GST linked beads. The bound proteins were resolved by SDS-PAGE and probed for GRP78 or BIK by Western blotting.
Glutathione S-transferase pull-down assays. Glutathione S-transferase (GST)-Grp78 and GST-BIK were constructed by subcloning full-length hamster Grp78 cDNA and human BIK into the BamH1/XhoI and BamH1/Sal1 sites of pGEX 4T1, respectively (Pharmacia Biotech, Piscataway, N.J.). Conditions for the GST pull-down assays have been described (Wu and Lee, Nucleic Acids Res. 26:4837-45 (1998)) with the following modifications. […]

[10] = target: GRP94 (human, UniProt P14625 22-803); assay: co-immunoprecipitation with anti-BIK from 293T lysate, Western blot
Procedure: as §4
(§5) Communoprecipitation assays. The coimmunoprecipitation assays were done as described (Reddy et al., J. Biol. Chem. 278:20915-24 (2003)). Briefly, 500 μg of total protein extract from each sample were pretreated with protein G-Sepharose beads (Upstate, Chicago, Ill.), followed by incubation with 5 Ag of goat anti-BIK antibody (N-19, Santa Cruz Biotechnology, Santa Cruz, Calif.) or mouse anti-Flag M2 antibody (Sigma-Aldrich, St. Louis, Mo.). For negative controls, the respective goat or mouse immunoglobulin G (IgG; Santa Cruz Biotechnology, Santa Cruz, Calif.) was used.

[11] = target: T2, calnexin (human, UniProt P27824 21-592); assay: as above
T2 sequence (looked up): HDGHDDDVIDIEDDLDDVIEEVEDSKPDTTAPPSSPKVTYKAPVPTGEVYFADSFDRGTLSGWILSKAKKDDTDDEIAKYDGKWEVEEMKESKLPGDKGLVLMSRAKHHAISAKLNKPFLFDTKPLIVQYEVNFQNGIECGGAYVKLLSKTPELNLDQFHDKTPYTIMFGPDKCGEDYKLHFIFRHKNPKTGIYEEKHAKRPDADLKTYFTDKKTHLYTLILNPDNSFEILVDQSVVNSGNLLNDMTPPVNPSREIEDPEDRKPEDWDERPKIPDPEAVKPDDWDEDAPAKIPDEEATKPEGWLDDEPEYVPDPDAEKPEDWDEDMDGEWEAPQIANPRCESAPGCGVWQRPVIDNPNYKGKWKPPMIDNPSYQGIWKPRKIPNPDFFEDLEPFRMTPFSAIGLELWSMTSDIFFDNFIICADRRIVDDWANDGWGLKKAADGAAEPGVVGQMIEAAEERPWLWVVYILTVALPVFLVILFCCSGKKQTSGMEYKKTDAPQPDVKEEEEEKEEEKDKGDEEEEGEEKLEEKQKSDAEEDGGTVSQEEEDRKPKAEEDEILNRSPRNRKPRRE
Procedure: as §4, §5

[12] = target: T3, calreticulin (human, UniProt P27797 18-417); assay: as above
T3 sequence (looked up): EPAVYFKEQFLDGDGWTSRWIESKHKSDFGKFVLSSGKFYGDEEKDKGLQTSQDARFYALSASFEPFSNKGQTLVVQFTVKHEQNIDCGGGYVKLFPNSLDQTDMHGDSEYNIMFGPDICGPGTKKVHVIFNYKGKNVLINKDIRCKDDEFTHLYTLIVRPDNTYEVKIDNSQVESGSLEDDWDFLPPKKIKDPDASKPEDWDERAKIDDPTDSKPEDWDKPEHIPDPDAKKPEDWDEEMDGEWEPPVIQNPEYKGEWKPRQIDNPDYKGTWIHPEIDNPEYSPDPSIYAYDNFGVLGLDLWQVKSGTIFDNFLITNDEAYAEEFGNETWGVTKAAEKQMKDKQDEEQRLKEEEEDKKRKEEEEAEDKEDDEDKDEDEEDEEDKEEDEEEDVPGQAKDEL
Procedure: as §4, §5

Chain of GRP94 (human, UniProt P14625 22-803) (P14625 22-803 limits assumed): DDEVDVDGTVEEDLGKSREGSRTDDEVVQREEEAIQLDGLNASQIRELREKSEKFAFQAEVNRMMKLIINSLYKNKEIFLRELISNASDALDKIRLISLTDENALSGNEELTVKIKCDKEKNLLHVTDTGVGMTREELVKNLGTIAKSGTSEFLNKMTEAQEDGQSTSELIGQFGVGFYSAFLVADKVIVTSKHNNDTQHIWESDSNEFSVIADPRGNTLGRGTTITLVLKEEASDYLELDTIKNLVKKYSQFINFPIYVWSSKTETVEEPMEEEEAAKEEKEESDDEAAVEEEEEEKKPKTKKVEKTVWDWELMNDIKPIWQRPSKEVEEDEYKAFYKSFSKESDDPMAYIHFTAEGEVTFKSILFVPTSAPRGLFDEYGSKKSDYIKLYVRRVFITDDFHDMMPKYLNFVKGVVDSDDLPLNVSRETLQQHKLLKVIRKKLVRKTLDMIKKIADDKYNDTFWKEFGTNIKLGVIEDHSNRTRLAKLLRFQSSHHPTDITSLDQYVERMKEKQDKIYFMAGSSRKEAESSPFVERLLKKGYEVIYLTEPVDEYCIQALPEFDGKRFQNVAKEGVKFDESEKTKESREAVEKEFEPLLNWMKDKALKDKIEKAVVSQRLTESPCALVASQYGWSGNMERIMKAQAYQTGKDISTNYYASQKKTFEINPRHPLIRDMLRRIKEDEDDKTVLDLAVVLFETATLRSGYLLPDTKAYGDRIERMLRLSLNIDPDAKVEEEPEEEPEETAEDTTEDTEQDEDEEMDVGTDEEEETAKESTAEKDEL
T1 sequence (P08515 whole entry): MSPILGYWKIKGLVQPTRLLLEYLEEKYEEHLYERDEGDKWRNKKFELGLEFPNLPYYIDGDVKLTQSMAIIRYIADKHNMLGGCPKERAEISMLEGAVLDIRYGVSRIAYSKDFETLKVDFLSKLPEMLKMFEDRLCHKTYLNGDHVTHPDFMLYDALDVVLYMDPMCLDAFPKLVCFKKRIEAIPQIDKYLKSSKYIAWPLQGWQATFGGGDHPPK

fold decrease in apoptosis (mitochondrial membrane potential staining) in transfected 293T cells [1]: 3 fold
Molecule: His-tagged Grp78

Molecule: siRNA against Grp78: siRNA 5′-gagcgcauugauacuagadTdT-3′ (SEQ ID NO:1) (guide GAGCGCAUUGAUACUAGATT; sugars from the 5' end r18 d2, backbone not given here)
level of Grp78 protein [2]: substantially reduced
expression of GRP94 [3]: no effect
effect on mitochondrial membrane potential ([4]; MCF-7/BUS cells in normal culture medium): little effect
apoptosis ([4]; MCF-7/BUS cells, estrogen starvation 24 hours, vs control siRNA): marked increase
PARP cleavage [5]: increased

Molecule: COc1cc([C@@H]2c3cc4c(cc3[C@@H](O[C@@H]3O[C@@H]5CO[C@@H](C)O[C@H]5[C@H](O)[C@H]3O)[C@H]3COC(=O)[C@H]23)OCO4)cc(OC)c1O [etoposide]
level of BIK protein ([6]; 293T cells, 50 μmol/L etoposide 6 hours, harvested 24 hours later): substantially elevated

decrease in BAX activation by estrogen starvation (FACS with BAX conformation specific antibody) in MCF-7/BUS cells [7]: 48%
Molecule: His-tagged full-length hamster Grp78 (Ad-Grp78) (from UniProt P07823 19-654)

Molecule: tunicamycin
induction of BIK by ER stress inducers ([6]; human cells): do not induce

Molecule: siRNA against Bik: siRNA 5′-aagaccccucuccagagacau-3′ (SEQ ID NO:2) (AAGACCCCUCUCCAGAGACAU; RNA, backbone not given here)
expression of BIK protein [8]: substantially reduced
enhanced PARP cleavage mediated by knockdown of Grp78 ([5]; BIK knockdown combined with Grp78 knockdown): substantially reduced
PARP cleavage [5]: decreased

binding result [9]: no binding
binding result [10]: no binding
binding result [11]: no binding
binding result [12]: no binding
B1: endogenous BIK (other, human, UniProt Q13323 1-160, looked up)
chain: MSEVRPLSRDILMETLLYEQLLEPPTMEVLGMTDSEEDLDPMEDFDSLECMEGSDALALRLACIGDEMDVSLRAPRLAQLSEVAMHSLGLAFIYDQTEDIRDVLRSFMDGFTTLKENIMRFWRSPNPGSWVSCEQVLLALLLLLALLLPLLSGGLHLLLK
notes: Endogenous protein from total cell extract of the human cell line 293T, untreated or etoposide-treated; also called BIK protein
